According to patent US4725683A, “Fluorophenoxyphenoxypropionates and derivatives thereof” (The Dow Chemical Company, priority 1985, dated 1988):

Experiments:
Test in all cases: Selective postemergence, track sprayer
Assay type in all cases: in vivo
[1] = test system: Annual Bluegrass
Procedure: (§1) Representative compositions of the present invention were evaluated for the postemergence control of species of plants listed in Table A. In these evaluations, pots of the plant species listed in Table A, grown to a height of about 10 cms, were used. Aqueous spray compositions, containing various amounts of 2-[4-(2-fluoro-4-trifluoromethylphenoxy)-phenoxy]propionic acid methy ester, i.e., 125 ppm, 62.5 ppm, 31.25 ppm, 15.6 ppm, 7.8 ppm and 3.9 ppm, respectively, were applied to separate pots. The spray compositions were made by mixing the active ingredient in acetone to 1/2 the final volume, i.e., twice the final concentration. An equal amount of water was added to the active ingredient/acetone mixture wherein the water contained 0.1 percent by weight of TWEEN® 200 surfactant. The application to the plants was made to the point of run-off and was carried out with conventional spraying equipment. Other pots were sprayed with similar compositions containing no toxicant to serve as controls. Thereafter, the pots were maintained under conditions conducive for plant growth. Two weeks after treatment, the pots were examined for plant growth and evaluated on a scale of 0 to 100 where 0 represents no effect and 100 represents complete kill. The results of the examination of the treated pots are set forth below in Table A.
(§2) To further define the selective postemergence herbicidal characteristics of compounds of the present invention, chemicals were applied to additional species of grasses as listed in Table F. Chemicals evaluated were 2-[4-(4-bromo-2-fluorophenoxy)phenoxy]propionic acid methyl ester and its R isomer. Treatment conditions were similar to those described in Example A except that chemicals were delivered through a track sprayer set to deliver the appropriate dosages in 280.6 L/hectare of water containing 0.1% Tween-20 surfactant.

[2] = test system: Barley
Procedure: as §1, §2

[3] = test system: Bermudagrass
Procedure: as §1, §2

[4] = test system: Broadleaf Signalgrass
Procedure: as §1, §2

[5] = test system: Crabgrass
Procedure: as §1, §2

[6] = test system: Downey Brome
Procedure: as §1, §2

[7] = test system: Fall Panicum
Procedure: as §1, §2

[8] = test system: Green Foxtail
Procedure: as §1, §2

[9] = test system: Red Top
Procedure: as §1, §2

[10] = test system: Sprangletop
Procedure: as §1, §2

[11] = test system: Wheat
Procedure: as §1, §2

[12] = test system: Wild Proso Millet
Procedure: as §1, §2

Measured: Percent Control

COC(=O)[C@@H](C)Oc1ccc(Oc2ccc(Br)cc2F)cc1 [4-Bromo-(R-Enantiomer), R enantiomer of 2-[4-(4-bromo-2-fluorophenoxy)phenoxy]propionic acid methyl ester]
80%: [7]; 0.0045 kgs/hectare | [7]; 0.009 kgs/hectare | [12]; 0.0023 kgs/hectare
60%: [3]; 0.018 kgs/hectare
50%: [4]; 0.00055 kgs/hectare | [4]; 0.0011 kgs/hectare | [4]; 0.0023 kgs/hectare | [5]; 0.0045 kgs/hectare | [7]; 0.0023 kgs/hectare
20%: [3]; 0.0045 kgs/hectare | [7]; 0.00055 kgs/hectare | [10]; 0.0011 kgs/hectare
100%: [4]; 0.018 kgs/hectare | [4]; 0.035 kgs/hectare | [4]; 0.07 kgs/hectare | [4]; 0.14 kgs/hectare | [4]; 0.28 kgs/hectare | [5]; 0.07 kgs/hectare | [5]; 0.14 kgs/hectare | [5]; 0.28 kgs/hectare | [7]; 0.018 kgs/hectare | [7]; 0.035 kgs/hectare | [7]; 0.07 kgs/hectare | [7]; 0.14 kgs/hectare | [7]; 0.28 kgs/hectare | [8]; 0.018 kgs/hectare | [8]; 0.035 kgs/hectare | [8]; 0.07 kgs/hectare | [8]; 0.14 kgs/hectare | [8]; 0.28 kgs/hectare | [10]; 0.0023 kgs/hectare | [10]; 0.0045 kgs/hectare | [10]; 0.009 kgs/hectare | [10]; 0.018 kgs/hectare | [10]; 0.035 kgs/hectare | [10]; 0.07 kgs/hectare | [10]; 0.14 kgs/hectare | [10]; 0.28 kgs/hectare | [12]; 0.0045 kgs/hectare | [12]; 0.018 kgs/hectare | [12]; 0.035 kgs/hectare | [12]; 0.07 kgs/hectare | [12]; 0.14 kgs/hectare | [12]; 0.28 kgs/hectare
0%: [1]; 0.00055 kgs/hectare | [1]; 0.0011 kgs/hectare | [1]; 0.0023 kgs/hectare | [1]; 0.0045 kgs/hectare | [1]; 0.009 kgs/hectare | [1]; 0.018 kgs/hectare | [1]; 0.035 kgs/hectare | [1]; 0.07 kgs/hectare | [1]; 0.14 kgs/hectare | [1]; 0.28 kgs/hectare | [2]; 0.00055 kgs/hectare | [2]; 0.0011 kgs/hectare | [2]; 0.0023 kgs/hectare | [2]; 0.0045 kgs/hectare | [2]; 0.009 kgs/hectare | [2]; 0.018 kgs/hectare | [2]; 0.035 kgs/hectare | [2]; 0.07 kgs/hectare | [2]; 0.14 kgs/hectare | [2]; 0.28 kgs/hectare | [3]; 0.00055 kgs/hectare | [3]; 0.0011 kgs/hectare | [3]; 0.0023 kgs/hectare | [5]; 0.00055 kgs/hectare | [5]; 0.0011 kgs/hectare | [5]; 0.0023 kgs/hectare | [6]; 0.00055 kgs/hectare | [6]; 0.0011 kgs/hectare | [6]; 0.0023 kgs/hectare | [6]; 0.0045 kgs/hectare | [6]; 0.009 kgs/hectare | [6]; 0.018 kgs/hectare | [6]; 0.035 kgs/hectare | [6]; 0.07 kgs/hectare | [6]; 0.14 kgs/hectare | [6]; 0.28 kgs/hectare | [9]; 0.00055 kgs/hectare | [9]; 0.0011 kgs/hectare | [9]; 0.0023 kgs/hectare | [9]; 0.0045 kgs/hectare | [9]; 0.009 kgs/hectare | [9]; 0.018 kgs/hectare | [10]; 0.00055 kgs/hectare | [11]; 0.00055 kgs/hectare | [11]; 0.0011 kgs/hectare | [11]; 0.0023 kgs/hectare | [11]; 0.0045 kgs/hectare | [11]; 0.009 kgs/hectare | [11]; 0.018 kgs/hectare | [11]; 0.035 kgs/hectare | [11]; 0.07 kgs/hectare | [11]; 0.14 kgs/hectare | [11]; 0.28 kgs/hectare
90%: [3]; 0.035 kgs/hectare | [3]; 0.07 kgs/hectare | [3]; 0.14 kgs/hectare | [4]; 0.0045 kgs/hectare | [5]; 0.009 kgs/hectare | [5]; 0.018 kgs/hectare | [8]; 0.0023 kgs/hectare | [9]; 0.07 kgs/hectare | [9]; 0.14 kgs/hectare | [9]; 0.28 kgs/hectare
95%: [3]; 0.28 kgs/hectare | [4]; 0.009 kgs/hectare | [8]; 0.0045 kgs/hectare | [8]; 0.009 kgs/hectare | [12]; 0.009 kgs/hectare
30%: [3]; 0.009 kgs/hectare | [7]; 0.0011 kgs/hectare | [8]; 0.00055 kgs/hectare | [9]; 0.035 kgs/hectare | [12]; 0.00055 kgs/hectare | [12]; 0.0011 kgs/hectare
70%: [5]; 0.035 kgs/hectare | [8]; 0.0011 kgs/hectare

COC(=O)C(C)Oc1ccc(Oc2ccc(Br)cc2F)cc1 (racemic) [Example 4-Bromo-, 2-[4-(4-bromo-2-fluorophenoxy)phenoxy]propionic acid methyl ester]
80%: [4]; 0.0045 kgs/hectare | [7]; 0.009 kgs/hectare | [9]; 0.07 kgs/hectare | [12]; 0.009 kgs/hectare
50%: [2]; 0.56 kgs/hectare | [5]; 0.0045 kgs/hectare | [5]; 0.009 kgs/hectare | [7]; 0.0045 kgs/hectare | [9]; 0.035 kgs/hectare | [11]; 0.56 kgs/hectare
95%: [3]; 0.07 kgs/hectare | [10]; 0.0045 kgs/hectare
10%: [2]; 0.14 kgs/hectare | [11]; 0.14 kgs/hectare
90%: [3]; 0.035 kgs/hectare | [3]; 0.14 kgs/hectare | [4]; 0.0023 kgs/hectare | [8]; 0.0045 kgs/hectare | [8]; 0.009 kgs/hectare | [9]; 0.14 kgs/hectare
20%: [2]; 0.28 kgs/hectare | [3]; 0.009 kgs/hectare | [7]; 0.0023 kgs/hectare | [8]; 0.0023 kgs/hectare | [9]; 0.009 kgs/hectare | [10]; 0.0023 kgs/hectare | [12]; 0.0011 kgs/hectare | [12]; 0.0023 kgs/hectare
40%: [11]; 0.28 kgs/hectare
0%: [1]; 0.0011 kgs/hectare | [1]; 0.0023 kgs/hectare | [1]; 0.0045 kgs/hectare | [1]; 0.009 kgs/hectare | [1]; 0.018 kgs/hectare | [1]; 0.035 kgs/hectare | [1]; 0.07 kgs/hectare | [1]; 0.14 kgs/hectare | [1]; 0.28 kgs/hectare | [1]; 0.56 kgs/hectare | [2]; 0.0011 kgs/hectare | [2]; 0.0023 kgs/hectare | [2]; 0.0045 kgs/hectare | [2]; 0.009 kgs/hectare | [2]; 0.018 kgs/hectare | [2]; 0.035 kgs/hectare | [2]; 0.07 kgs/hectare | [3]; 0.0011 kgs/hectare | [3]; 0.0023 kgs/hectare | [3]; 0.0045 kgs/hectare | [5]; 0.0011 kgs/hectare | [5]; 0.0023 kgs/hectare | [6]; 0.0011 kgs/hectare | [6]; 0.0023 kgs/hectare | [6]; 0.0045 kgs/hectare | [6]; 0.009 kgs/hectare | [6]; 0.018 kgs/hectare | [6]; 0.035 kgs/hectare | [6]; 0.07 kgs/hectare | [6]; 0.14 kgs/hectare | [6]; 0.28 kgs/hectare | [6]; 0.56 kgs/hectare | [7]; 0.0011 kgs/hectare | [8]; 0.0011 kgs/hectare | [9]; 0.0011 kgs/hectare | [9]; 0.0023 kgs/hectare | [9]; 0.0045 kgs/hectare | [10]; 0.0011 kgs/hectare | [11]; 0.0011 kgs/hectare | [11]; 0.0023 kgs/hectare | [11]; 0.0045 kgs/hectare | [11]; 0.009 kgs/hectare | [11]; 0.018 kgs/hectare | [11]; 0.035 kgs/hectare | [11]; 0.07 kgs/hectare
100%: [3]; 0.28 kgs/hectare | [3]; 0.56 kgs/hectare | [4]; 0.009 kgs/hectare | [4]; 0.035 kgs/hectare | [4]; 0.07 kgs/hectare | [4]; 0.14 kgs/hectare | [4]; 0.28 kgs/hectare | [4]; 0.56 kgs/hectare | [5]; 0.035 kgs/hectare | [5]; 0.07 kgs/hectare | [5]; 0.14 kgs/hectare | [5]; 0.28 kgs/hectare | [5]; 0.56 kgs/hectare | [7]; 0.035 kgs/hectare | [7]; 0.14 kgs/hectare | [7]; 0.28 kgs/hectare | [7]; 0.56 kgs/hectare | [8]; 0.035 kgs/hectare | [8]; 0.07 kgs/hectare | [8]; 0.14 kgs/hectare | [8]; 0.28 kgs/hectare | [8]; 0.56 kgs/hectare | [9]; 0.28 kgs/hectare | [9]; 0.56 kgs/hectare | [10]; 0.009 kgs/hectare | [10]; 0.035 kgs/hectare | [10]; 0.14 kgs/hectare | [10]; 0.28 kgs/hectare | [10]; 0.56 kgs/hectare | [12]; 0.035 kgs/hectare | [12]; 0.07 kgs/hectare | [12]; 0.14 kgs/hectare | [12]; 0.28 kgs/hectare | [12]; 0.56 kgs/hectare
70%: [4]; 0.0011 kgs/hectare | [12]; 0.0045 kgs/hectare
